Source: patent US20260258420A1, “COMPOSITIONS AND METHODS FOR THE TREATMENT OF HUMAN PAPILLOMAVIRUS-DRIVEN CANCERS” (priority 2023, published 2026)

Columns and labels:
[1] = test system: HPV-negative HNSCC cells (HN31, UMSCC4, and MDA886LN) with RB1 knockdown; assay: Apoptosis after RB1 depletion in HPV-negative cells (annexin V, immunoblot); format: cell-based
Experimental: FIG. 4B, HPV-negative HNSCC cells (HN31, UMSCC4, and MDA886LN) were infected with distinct, lentivirus-based shRNAs (Sh2, Sh4, and Sh6) to stably knock down the expression of RB1 or were treated with control (Ctrl) shRNA. Cells were then treated with 300 nmol/L alisertib for 24 hours before annexin V-PE/7AAD staining and analysis with flow cytometry. The bar graph represents the ratio of apoptosis (late plus early) among different groups. Values are the means±the standard deviations for 3 independent experiments. *P<0.05; **P<0.005; unpaired, 2-tailed Student t-test. FIG. 4C, cells from FIG. 4B were treated with 300 nmol/L alisertib for 24 hours before lysis and immunoblotting with the indicated antibodies. […] Representative results from 3 independent experiments are shown. Cl, cleaved; Fl, full length; GAPDH, glyceraldehyde 3-phosphate dehydrogenase; Ox, overexpression.
To measure apoptosis, TUNEL staining was performed with an APO-BRDU Kit (BD Biosciences, San Jose, CA) and annexin V/propidium iodide staining with an FITC Annexin V Apoptosis Detection Kit PE (eBioscience, San Diego, CA) as described previously (Kalu, et al., Cancer Lett 2018; 431:64-72). […] Data were acquired with a 3-laser, 10-color Gallios flow cytometer (Beckman Coulter, Brea, CA) and analyzed using Kaluza software, RRID:SCR_016182 (Beckman Coulter, Brea, CA). Assays were performed in triplicate, and each test was completed twice on different days.
The lentiviral-based shRNA (GIPZ plasmid) used to knock down human RB1 expression was purchased from Horizon Discovery (Waterbeach, United Kingdom). On the basis of the knockdown efficiency of Rb1 protein expression in 3 HPV-negative cell lines (HN31, UMSCC4, and MDA88 6LN), shRblclones were selected (#2, #4, and #6) for this study. […] The mature antisense sequences were as follows: 5′-[sequence]-3′ (SEQ ID NO:1) (shRb1 #2), 5′-[sequence]-3′ (SEQ ID NO:2) (shRb1 #4), and 5′-[sequence]-3′ (SEQ ID NO:3) (shRb1 #6). To generate lentivirus-expressing shRNA for RB1, HEK 293T cells were transfected with GIPZ-non-silence (for the vector control virus) and GIPZ-shRB1 with jetPEI transfection reagent (RRID:CVCL_0063). The medium was changed 24 hours after transfection and then collected every 48 hours thereafter. The collected lentivirus-containing medium was centrifuged and then filtered (0.45 μM).

[2] = test system: PDX tumors HOSC144, HOSC19, HOSC156 (p16-positive oropharynx cancer); assay: In vivo tumor growth study, HPV-positive PDX models; design: species or system nude mice
Experimental: (§1) PDX tumors HOSC144 (FIG. 3A, FIG. 3E, FIG. 3F), HOSC19 (FIG. 3B), and HOSC156 (FIG. 3C) were implanted into the flanks of nude mice. After engraftment, mice were randomized and assigned into 1 of 2 treatment groups: vehicle (β-cyclodextrin, n=8) or alisertib (10 mg/kg, n=8). Mice were treated for 3 weeks by daily oral gavage. Tumor size was measured twice a week. FIG. 3A, FIG. 3B, and FIG. 3C show in vivo tumor growth curves for individual mice (left 3 panels). Survival (right panels) was measured using the Kaplan-Meier method. In FIG. 3D, HPV-negative UMSCC22A cells were injected subcutaneously (3×10^6 cells) on the right flanks of the mice. Once the tumor volume reached ≥60 mm^3, mice were randomized into treatment groups. Mice were treated with vehicle or 10 mg/kg alisertib by oral gavage for 5 days per week for 21 days. Tumor size was measured twice a week. […] The Ki67(%) was calculated as the ratio of proliferative cells to total cells in each field, using five random fields. […] The apoptotic (%) was calculated as the ratio of apoptotic cells to total cells in each field, using five random fields in HOSC144 PDX tumors after 8 or 21 days of treatment with either vehicle or alisertib. ** P≤0.01; *** P≤0.001. Bars, 100 μM.
The in vivo tumor growth study was performed in accordance with the Guide for the Care and Use of Laboratory Animals of the National Institutes of Health and approved by MD Anderson's Institutional Animal Care and Use Committee. The PDX models were generated as described previously (Peng, et al., J Transl Med 2013; 11:198), and subjected to qPCR as described to determine the HPV type (Chaturvedi, et al., The Journal of Infectious Diseases 2014; 210(3):441-7; Fakhry, et al, JAMA Oncol 2019; 5(7):985-92). Briefly, tumor tissue was cut into small fragments (5-6 mm) and implanted subcutaneously into the flanks of nude mice. The skin incisions were closed with skin clips that were removed after 10 to 15 days. Once tumors reached an average of 150 to 300 mm^3, the mice were randomized into either vehicle group or alisertib group. Alisertib (Takeda Pharmaceuticals, Lexington, MA; 10 mg/kg in 10% β-cyclodextrin) was administered via oral gavage once daily on a weekly schedule of 6 days on and 1 day off. Tumors were monitored daily, and tumor volume (length×width^2×0.5) was evaluated twice per week with digital calipers. Mice were euthanized when tumors reached 2000 mm^3. The endpoint for the survival studies was the tumor burden. Survival was measured using the Kaplan-Meier method. Survival curve analysis was performed with GraphPad Prism software version 9 (RRID:SCR_002798).
To test the effect of Aurora kinase inhibition in vivo, three patient-derived xenograft (PDX) models that were derived from patients with p16-positive oropharynx cancer [HOSC144 (HPV16, HPV52), HOSC19 (HPV18, HPV59), and HOSC 156 (HPV18)], were implanted in nude mice. A low dose of alisertib (10 mg/kg) was administered continuously for 3 weeks. […] In addition, an HPV-negative cell line with high Rb protein levels was also tested and it was observed that it was resistant to alisertib treatment (FIG. 3D).

[3] = test system: HPV-positive cancer cell lines (UMSCC47, CaSki, and MS751); assay: BrdU-TUNEL apoptosis assay, HPV-positive cell lines; format: cell-based; details: 50 nmol/L barasertib or 200 nmol/L alisertib, 72 hours or 2 doubling times
Experimental: BrdU positive apoptotic cells were detected and quantified. The bar graph indicates the percentage of apoptotic cells with fragmented DNA in HPV-positive and HPV-negative cell lines. Values are the means±the standard deviations for 3 independent experiments. FIG. 2B and FIG. 2C show immunoblots of cleaved PARP (Cl. PARP) and cleaved caspase-3 (Cl. Caspase-3) levels in 3-HPV positive and 3 HPV-negative cell lines after barasertib or alisertib treatment for 2 doubling times (FIG. 2B) or 72 hours (FIG. 2C). […] UM47, UMSCC47; GAPDH, glyceraldehyde 3-phosphate dehydrogenase.
To measure apoptosis, TUNEL staining was performed with an APO-BRDU Kit (BD Biosciences, San Jose, CA) and annexin V/propidium iodide staining with an FITC Annexin V Apoptosis Detection Kit PE (eBioscience, San Diego, CA) as described previously (Kalu, et al., Cancer Lett 2018; 431:64-72). […] Data were acquired with a 3-laser, 10-color Gallios flow cytometer (Beckman Coulter, Brea, CA) and analyzed using Kaluza software, RRID:SCR_016182 (Beckman Coulter, Brea, CA). […] Briefly, after drug treatment, cells were incubated with Senescence Green Probe, a fluorescence-based reagent that contains 2 galactoside moieties that make it specific to […]. The enzyme-cleaved product is retained within the cell, and it emits a fluorogenic signal that was measured at 490/514 nm using a flow cytometer. […]

[4] = test system: HPV-negative UMSCC22A cells; assay: In vivo tumor growth, HPV-negative xenograft; design: species or system mice; details: 10 mg/kg oral gavage 5 days per week for 21 days, high Rb protein levels
Experimental: as §1, with “[…]. […]” for “μM.”

[5] = RB1 shRNA, 300 nmol/L, 24 hours
[6] = HOSC144 tumors, days 8 and 21, vs vehicle

Q: For `COc1cc(Nc2ncc3c(n2)-c2ccc(Cl)cc2C(c2c(F)cccc2OC)=NC3)ccc1C(=O)O` [ALISERTIB, alisertib], which “cleaved PARP levels” value ([1]; RB1 depleted by transient transfection) is on record?
A: increase in cleaved PARP levels

Q: What about the “apoptosis (cleaved caspase-3 and cleaved PARP) in cells with reduced Rb levels” value [1, 5] of the same molecule?
A: induced significant apoptosis

Q: What about the “increase in annexin V-positive apoptotic cells when Rb was depleted” value [1, 5] of the same molecule?
A: approximately 3 fold

Q: What about the “apoptosis in control cells with detectable Rb protein levels” value ([1]; control shRNA, 300 nmol/L, 24 hours) of the same molecule?
A: did not induce apoptosis

Q: And the “response after treatment was stopped” value ([2]; 10 mg/kg oral gavage, 3 weeks)?
A: sustained response

Q: What about the tumor growth ([2]; 10 mg/kg oral gavage, 3 weeks) of the same molecule?
A: clear evidence of tumor regression

Q: And the survival duration ([2]; 10 mg/kg oral gavage, 3 weeks, Kaplan-Meier)?
A: concordant increase in survival duration

Q: What about the “Ki67 staining in tumors” value [2, 6] of the same molecule?
A: significantly lower levels of Ki67 staining

Q: And the “cleaved caspase-3 in tumors” value [2, 6]?
A: increased levels of cleaved caspase-3

Q: What about the TUNEL-positive apoptotic nuclei [3] of the same molecule?
A: significantly increased

Q: And the tumor response [4]?
A: resistant
